Assay results as given in patent publication US20250002463A1, “NEW SALT FORMS OF AMILORIDE AND ITS DERIVATIVES FOR PHARMACEUTICAL USE” (PSOMRI Holding AB, priority 2021, published 2025).

Experiments:
[1] = Hygroscopicity by Dynamic Vapor Sorption (DVS); type: physicochemical
Experimental: The hygroscopic behaviour of the salts was evaluated through Dynamic Vapor Sorption (DVS) measurements with an RH profile 40-95-0-40% at 25° C. and a dm/dt of 0.002. The classification of the hygroscopic behaviour is based on the water vapour uptake at 25° C./80% RH in first adsorption cycle of sorption isotherm.

[2] = Aqueous solubility of salts, Example 1 (aliquot addition; HPLC after 24 h at RT; pH of solutions/mother liquors)
Experimental: The aqueous solubility of the salts was estimated qualitatively by the solvent aliquot addition method. Aliquots of water up to 500-600 μL were added to approximately 5 mg of salt. The solubility of the free base was also estimated.
The suspensions were let equilibrating at room temperature for 24 h. Afterwards, solids were separated from the liquid phases. The liquid phases were filtered and analyzed by HPLC to determine the solubility. The pH of solutions/mother liquors was also measured.
Suspensions of the two salts were prepared in water with a concentration of 9-10 mg/mL. The mixtures were let equilibrating at RT for 24 h. Afterwards, solids were separated from the liquid phases. The liquid phases were filtered and analyzed by HPLC to determine the solubility. The pH of mother liquors was also measured.

[3] = Polymorphism: solid forms found in salt screen by HT-XRPD; type: physicochemical; details: Example 1 salt screen in MeOH, DME, THF
Experimental: (§1) The precipitated solids were analyzed by high throughput X-ray powder diffractometry (HT XRPD). Liquid phases (both solutions and mother liquors) were evaporated at ambient conditions and the residual solids were analyzed by HT XRPD.
The salt screen experiments were carried out in methanol (MeOH), 1,2-dimethoxyethane (DME) and tetrahydrofuran (THF).

[4] = Physical stability under Accelerated Aging Conditions (AAC, 40° C./75% RH, 2 days), HT-XRPD; details: for Physical Stability: AAC 40° C./75% RH, 2 days, re-analyzed by HT-XRPD; for physical stability upon exposure to AAC: Example 2
[5] = Crystallinity of salt forms by HT-XRPD; type: physicochemical; details: salt screen solid forms
Experimental: as §1
XRPD patterns were obtained using the Ardena T2 high-throughput XRPD set-up. The plates were mounted on a Bruker General Area Detector Diffraction System (GADDS) equipped with a VÅNTEC-500 gas area detector corrected for intensity and geometric variations. The calibration of the measurement accuracy (peaks position) was performed using NIST SRM1976 standard (Corundum).
No background subtraction or curve smoothing was applied to the XRPD patterns.

[6] = Aqueous solubility at RT, Example 2 (water aliquot addition up to 1600 μL); type: physicochemical; details: for dissolution in water: water aliquots up to 1600 μL; for dissolution in water after heating: suspension in 1600 μL water heated to 50° C. for 15 min
Experimental: Aqueous solubility was determined for the anhydrous and hydrated salt forms, as well as for the salts found after the stability study. Aliquots of water were added to the solid salts until dissolution occurred or 1600 μL of water was added. The lactate salt was taken along in the solubility studies as a reference. […] The results (in mg/mL free base dissolved for better comparison between salt forms) of the solubility determination performed in water are reported in Table 9.
Upon completion of the solubility determination, the remaining solids were separated from the liquid phases and allowed to air dry. Dried solids were analyzed by HT-XRPD.

[7] = Thermal stability of benzamil in solution (UPLC MS); type: physicochemical; details: ethanol, ~0.5 mg/mL, 1 h
Experimental: The thermal stability of benzamil was evaluated in three solvent systems: acetonitrile:water 1:1, ethanol, and 0.1 M HCl. Solutions of benzamil (˜0.5 mg/mL) were prepared in the selected solvents and split over 3 vials. The solutions were stirred at room temperature, 50° C. and 80° C. for one hour and then analyzed by UPLC MS. The chemical purity of benzamil measured in the solutions incubated at 50° C. and 80° C. for 1 h was compared to that measured initially in the starting solutions.

[8] = Qualitative solubility of benzamil free base in solvents (aliquot addition); type: physicochemical

Compound: CC(=O)O.NC(=NC(=O)c1nc(Cl)c(N)nc1N)NCc1ccccc1 [ACA1]
- water vapour uptake ([1]; 25° C./80% RH, first adsorption cycle): 0.1%
- classification of hygroscopic behaviour ([1]; based on water vapour uptake at 25° C./80% RH): non hygroscopic
- Water solubility ([2]; Example 1, RT, aliquot addition (ranges) or HPLC after 24 h, not in Table 3): 15000 to 19000 µg/mL
- Polymorphism [3]: Yes
- Physically stable after AAC ([4]; Example 1, 40° C./75% RH for 2 days): physically stable and Yes

Compound: CCCC(=O)O.NC(=NC(=O)c1nc(Cl)c(N)nc1N)NCc1ccccc1 [BUT1]
- Crystallinity [5]: Good
- dissolution in water ([6]; RT): Full dissolution
- Physical Stability [4]: Stable
- physical stability upon exposure to AAC ([4]; 40° C./75% RH for 2 days): physically stable

Compound: NC(=NCc1ccccc1)NC(=O)c1nc(Cl)c(N)nc1N [Benzamil free base, 3,5-diamino-N—(N′-benzylcarbamimidoyl)-6-chloropyrazine-2-carboxamide]
- Water solubility [2]: practically insoluble
- solubility at 24 h ([2]; water, thermodynamic from solid): < 100 µg/mL
- chemical stability in solution ([7]; 50° C.): stable
- chemical stability in solution ([7]; 80° C.): some chemical degradation was observed
- Polymorphism [3]: Yes
- qualitative solubility ([8]; 1,2-dimethoxyethane): slightly soluble
- effect of temperature on solubility ([8]; THF suspension, 50° C. for 30 min): slightly improved the solubility
- qualitative solubility ([8]; methanol): slightly soluble
- qualitative solubility ([8]; most of the tested solvents (ethanol, water, 1,4-dioxane, acetonitrile, TBME, heptane, ethylacetate, THF), approximately 3 mg/mL): insoluble

Compound: NC(=NC(=O)c1nc(Cl)c(N)nc1N)NCc1ccccc1.O=CO [FOR3]
- Crystallinity [5]: Good
- dissolution in water after heating [6]: dissolved

Compound: Br.N=C(NCc1ccccc1)NC(=O)c1nc(Cl)c(N)nc1N [HBR1]
- Crystallinity [5]: Moderate
- dissolution in water after heating [6]: dissolved
- Physical Stability [4]: Stable
- physical stability upon exposure to AAC ([4]; 40° C./75% RH for 2 days): physically stable

Compound: NC(=NC(=O)c1nc(Cl)c(N)nc1N)NCc1ccccc1.O=C(O)CC(=O)O [MAO1]
- Crystallinity [5]: Good
- dissolution in water after heating [6]: dissolved
- Physical Stability [4]: Stable
- physical stability upon exposure to AAC ([4]; 40° C./75% RH for 2 days): physically stable

Compound: CS(=O)(=O)O.NC(=NC(=O)c1nc(Cl)c(N)nc1N)NCc1ccccc1 [MES1]
- Crystallinity [5]: Good
- aqueous solubility compared with starting material (LAC1) ([6]; RT): better solubility value than the starting material (LAC1)
- behaviour after full dissolution in water ([6]; RT): precipitation was observed after full dissolution
- dissolution in water ([6]; RT): Full dissolution
- behaviour in repeated aqueous solubility determination ([6]; aiming for 50 mg/ml, RT): quickly dissolved at RT and after 15 min it crashed out again as a white solid
- Physical Stability [4]: Stable
- physical stability upon exposure to AAC ([4]; 40° C./75% RH for 2 days): physically stable

Compound: Cl.NC(=NC(=O)c1nc(Cl)c(N)nc1N)NCc1ccccc1 [Mono-HCl (ref)]
- Concentration FB [2]: 2400 to 3000 µg/mL

Compound: CCC(=O)O.NC(=NC(=O)c1nc(Cl)c(N)nc1N)NCc1ccccc1 [PRO2]
- Crystallinity [5]: Moderate
- dissolution in water after heating [6]: dissolved
